Source: US9242970B2 (ACTELION PHARMACEUTICALS LTD., priority 2010, dated 2016)
pIC50: −log10 of the molar value. Like-named read-outs stand apart in the source and are kept apart here.

What was measured:
[1] = target: human orexin-1 receptor (Homo sapiens (Human), UniProt O43613); test: In vitro assay: intracellular calcium measurements (FLIPR), antagonistic activity; type: cell-based; settings: CHO cells, 3 nM orexin-A, marked values are geometric means of n = 2-6, read-out: IC50 OX1
Experimental: (§1) In Vitro Assay: Intracellular Calcium Measurements:
(§2) Chinese hamster ovary (CHO) cells expressing the human orexin-1 receptor and the human orexin-2 receptor, respectively, are grown in culture medium (Ham F-12 with L-Glutamine) containing 300 µg/ml G418, 100 U/ml penicillin, 100 µg/ml streptomycin and 10% heat inactivated fetal calf serum (FCS). The cells are seeded at 20,000 cells/well into 384-well black clear bottom sterile plates (Greiner). The seeded plates are incubated overnight at 37° C. in 5% CO2.
(§3) Fluorescence is measured for each well at 1 second intervals, and the height of each fluorescence peak is compared to the height of the fluorescence peak induced by 3 nM orexin-A with vehicle in place of antagonist. […] Optimized conditions were achieved by adjustment of pipetting speed and cell splitting regime. The calculated IC50 values may fluctuate depending on the daily cellular assay performance. Fluctuations of this kind are known to those skilled in the art.

[2] = target: human orexin-2 receptor (Homo sapiens (Human), UniProt O43614); test: as above; type: cell-based; settings: read-out: IC50 OX2
Experimental: as §1, §2, §3

[3] = compound incubation time of 10 min
[4] = CHO cells, 3 nM orexin-A, compound incubation time of 10 min, marked values are geometric means of n = 2-6
[5] = CHO cells, 3 nM orexin-A, compound incubation 120 min, marked values are geometric means of n = 2-6

human orexin-2 receptor, sequence (O43614 whole entry): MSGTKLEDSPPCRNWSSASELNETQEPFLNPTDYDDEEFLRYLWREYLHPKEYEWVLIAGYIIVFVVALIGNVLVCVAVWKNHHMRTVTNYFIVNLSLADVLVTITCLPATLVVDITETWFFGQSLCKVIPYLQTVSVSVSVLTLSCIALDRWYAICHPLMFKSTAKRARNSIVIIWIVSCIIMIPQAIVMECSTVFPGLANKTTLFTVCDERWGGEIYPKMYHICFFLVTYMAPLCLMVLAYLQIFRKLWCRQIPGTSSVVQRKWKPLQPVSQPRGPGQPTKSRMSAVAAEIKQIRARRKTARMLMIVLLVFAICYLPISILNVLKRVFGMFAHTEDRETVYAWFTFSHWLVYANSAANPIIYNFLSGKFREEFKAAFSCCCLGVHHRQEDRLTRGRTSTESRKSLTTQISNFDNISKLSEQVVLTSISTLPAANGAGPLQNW
human orexin-1 receptor, sequence (O43613 whole entry): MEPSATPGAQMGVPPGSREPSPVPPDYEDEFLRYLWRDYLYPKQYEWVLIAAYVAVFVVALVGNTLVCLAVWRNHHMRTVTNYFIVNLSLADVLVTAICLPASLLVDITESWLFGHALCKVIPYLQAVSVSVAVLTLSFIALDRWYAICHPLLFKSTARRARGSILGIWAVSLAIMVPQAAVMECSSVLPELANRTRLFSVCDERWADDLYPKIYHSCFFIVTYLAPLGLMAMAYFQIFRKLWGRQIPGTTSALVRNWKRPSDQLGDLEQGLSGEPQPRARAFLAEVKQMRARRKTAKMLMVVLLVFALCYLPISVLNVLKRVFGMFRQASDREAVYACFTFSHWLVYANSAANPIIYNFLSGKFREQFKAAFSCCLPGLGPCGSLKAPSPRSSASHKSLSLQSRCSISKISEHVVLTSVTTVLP

pIC50 ([1]; compound incubation 120 min) | pIC50 [2, 5] | SMILES | other results
– | – | COc1cccc(OC)c1[C@@H]1C[C@H](OC)C(=O)N1Cc1ccc(OC(F)(F)F)cc1 (racemic) [Example 254, rac-(3S*,5S*)-5-(2,6-dimethoxyphenyl)-3-methoxy-1-(4-(trifluoromethoxy)benzyl)pyrrolidin-2-one] | pIC50 [1, 3]: 6.72; pIC50 [2, 4]: 6.77
– | – | COc1cccc(OC)c1[C@@H]1C[C@@H](Cl)C(=O)N1Cc1ccc(OC(F)(F)F)cc1 (racemic) [Example 257, rac-(3R*,5S*)-3-chloro-5-(2,6-dimethoxyphenyl)-1-(4-(trifluoromethoxy)benzyl)pyrrolidin-2-one] | pIC50 [1, 3]: 6.75; pIC50 [2, 4]: 6.25
– | – | COc1cccc(OC)c1[C@@H]1C[C@H](Cl)C(=O)N1Cc1ccc(OC(F)(F)F)cc1 (racemic) [Example 261, rac-(3S*,5S*)-3-chloro-5-(2,6-dimethoxyphenyl)-1-(4-(trifluoromethoxy)benzyl)pyrrolidin-2-one] | pIC50 [1, 3]: 7.19; pIC50 [2, 4]: 7.39
– | – | COc1cccc(OC)c1[C@@H]1C[C@@H](OC)C(=O)N1Cc1ccc(OC(F)(F)F)cc1 (racemic) [Example 262, rac-(3R*,5S*)-5-(2,6-dimethoxyphenyl)-3-methoxy-1-(4-(trifluoromethoxy)benzyl)pyrrolidin-2-one] | pIC50 [1, 3]: 5.47; pIC50 [2, 4]: 5.16
– | – | CC[C@H]1C[C@@H](c2c(OC)cccc2OC)N(Cc2ccc(OC(F)(F)F)cc2)C1=O (racemic) [Example 263, rac-(3S*,5S*)-5-(2,6-dimethoxyphenyl)-3-ethyl-1-(4-(trifluoromethoxy)benzyl)pyrrolidin-2-one] | pIC50 [1, 3]: 6.21; pIC50 [2, 4]: 5.44
5.40 | 5.30 | O=C1[C@H](O)C[C@@H](c2cccc3c2OCCO3)N1Cc1ccc(OC(F)(F)F)cc1 (racemic) [Example 295, rac-(3R*,5S*)-5-(2,3-dihydrobenzo[b][1,4]dioxin-5-yl)-3-hydroxy-1-(4-(trifluoromethoxy)benzyl)pyrrolidin-2-one] | –
– | 5.66 | COc1cc(F)ccc1[C@@H]1C[C@@H](O)C(=O)N1Cc1ccc(OC(F)(F)F)cc1 (racemic) [Example 296, rac-(3R*,5S*)-5-(4-fluoro-2-methoxyphenyl)-3-hydroxy-1-(4-(trifluoromethoxy)benzyl)pyrrolidin-2-one] | –
5.98 | 6.25 | COc1ccccc1[C@@H]1C[C@H](F)C(=O)N1Cc1ccc(OC(F)(F)F)cc1 (racemic) [Example 297, rac-(3S*,5S*)-3-fluoro-5-(2-methoxyphenyl)-1-(4-(trifluoromethoxy)benzyl)pyrrolidin-2-one] | –
5.79 | 6.05 | COc1ccccc1[C@@H]1C[C@H](Cl)C(=O)N1Cc1ccc(OC(F)(F)F)cc1 (racemic) [Example 298, rac-(3S*,5S*)-3-chloro-5-(2-methoxyphenyl)-1-(4-(trifluoromethoxy)benzyl)pyrrolidin-2-one] | –
5.73 | 6.77 | CCOc1ccccc1[C@@H]1C[C@@H](O)C(=O)N1Cc1ccc(OC(F)(F)F)cc1 (racemic) [Example 299, rac-(3R*,5S*)-5-(2-ethoxyphenyl)-3-hydroxy-1-(4-(trifluoromethoxy)benzyl)pyrrolidin-2-one] | –
– | 7.01 | CCOc1ccccc1[C@@H]1C[C@H](F)C(=O)N1Cc1ccc(OC(F)(F)F)cc1 (racemic) [Example 300, rac-(3S*,5S*)-5-(2-ethoxyphenyl)-3-fluoro-1-(4-(trifluoromethoxy)benzyl)pyrrolidin-2-one] | –
5.77 | 7.18 | COc1cccc(F)c1[C@@H]1C[C@H](F)C(=O)N1Cc1ccc(OC(F)(F)F)cc1 (racemic) [Example 301, rac-(3S*,5S*)-3-fluoro-5-(2-fluoro-6-methoxyphenyl)-1-(4-(trifluoromethoxy)benzyl)pyrrolidin-2-one] | –
5.86 | 6.99 | COc1cccc(Cl)c1[C@@H]1C[C@H](F)C(=O)N1Cc1ccc(OC(F)(F)F)cc1 (racemic) [Example 302, rac-(3S*,5S*)-5-(2-chloro-6-methoxyphenyl)-3-fluoro-1-(4-(trifluoromethoxy)benzyl)pyrrolidin-2-one] | –
– | 6.84 | COc1cc(F)ccc1[C@@H]1C[C@H](F)C(=O)N1Cc1ccc(OC(F)(F)F)cc1 (racemic) [Example 303, rac-(3S*,5S*)-3-fluoro-5-(4-fluoro-2-methoxyphenyl)-1-(4-(trifluoromethoxy)benzyl)pyrrolidin-2-one] | –
6.40 | 7.02 | COc1cccc(F)c1[C@@H]1C[C@H](Cl)C(=O)N1Cc1ccc(OC(F)(F)F)cc1 (racemic) [Example 305, rac-(3S*,5S*)-3-chloro-5-(2-fluoro-6-methoxyphenyl)-1-(4-(trifluoromethoxy)benzyl)pyrrolidin-2-one] | –
– | 5.77 | CCOc1c(F)cccc1[C@@H]1C[C@@H](O)C(=O)N1Cc1ccc(OC(F)(F)F)cc1 (racemic) [Example 310, rac-(3R*,5S*)-5-(2-ethoxy-3-fluorophenyl)-3-hydroxy-1-(4-(trifluoromethoxy)benzyl)pyrrolidin-2-one] | –
– | 6.13 | COc1ccc(F)c(OC)c1[C@@H]1C[C@@H](O)C(=O)N1Cc1ccc(OC(F)(F)F)cc1 (racemic) [Example 311, rac-(3R*,5S*)-5-(3-fluoro-2,6-dimethoxyphenyl)-3-hydroxy-1-(4-(trifluoromethoxy)benzyl)pyrrolidin-2-one] | –
– | 6.39 | COc1c(F)ccc(F)c1[C@@H]1C[C@H](F)C(=O)N1Cc1ccc(OC(F)(F)F)cc1 (racemic) [Example 321, rac-(3S*,5S*)-5-(3,6-difluoro-2-methoxyphenyl)-3-fluoro-1-(4-(trifluoromethoxy)benzyl)pyrrolidin-2-one] | –
– | 7.24 | CCOc1ccc(F)c(F)c1[C@@H]1C[C@@H](O)C(=O)N1Cc1ccc(OC(F)(F)F)cc1 (racemic) [Example 338, rac-(3R*,5S*)-5-(6-ethoxy-2,3-difluorophenyl)-3-hydroxy-1-(4-(trifluoromethoxy)benzyl)pyrrolidin-2-one] | –
– | 7.11 | CC(C)Oc1cccc(F)c1[C@@H]1C[C@@H](O)C(=O)N1Cc1ccc(OC(F)(F)F)cc1 (racemic) [Example 394, rac-(3R*,5S*)-5-(2-fluoro-6-isopropoxyphenyl)-3-hydroxy-1-(4-(trifluoromethoxy)benzyl)pyrrolidin-2-one] | –
– | 7.54 | COc1cccc(F)c1[C@@H]1C[C@@H](Cl)C(=O)N1Cc1ccc2oc3ccccc3c2c1 (racemic) [Example 396, rac-(3R*,5S*)-3-chloro-1-(dibenzo[b,d]furan-2-ylmethyl)-5-(2-fluoro-6-methoxyphenyl)pyrrolidin-2-one] | –
– | 8.30 | COc1cccc(F)c1[C@@H]1C[C@H](Cl)C(=O)N1Cc1ccc2oc3ccccc3c2c1 (racemic) [Example 408, rac-(3S*,5S*)-3-chloro-1-(dibenzo[b,d]furan-2-ylmethyl)-5-(2-fluoro-6-methoxyphenyl)pyrrolidin-2-one] | –
– | – | COc1cccc(F)c1C1CCCC(=O)N1Cc1ccc(OC(F)(F)F)cc1 (stereo not drawn) [Example 220, 6-(2-fluoro-6-methoxyphenyl)-1-(4-(trifluoromethoxy)benzyl)piperidin-2-one] | pIC50 [2, 4]: 6.81
– | – | CCOc1cccc(OCC)c1C1CCCC(=O)N1Cc1ccc(OC(F)(F)F)cc1 (stereo not drawn) [Example 231, 6-(2,6-diethoxyphenyl)-1-(4-(trifluoromethoxy)benzyl)piperidin-2-one] | pIC50 [1, 3]: 6.26
– | 7.52 | CCOc1cccc(F)c1C1CC(C)C(=O)N1Cc1ccc(OC(F)(F)F)cc1 (stereo not drawn) [Example 370, 5-(2-ethoxy-6-fluorophenyl)-3-methyl-1-(4-(trifluoromethoxy)benzyl)pyrrolidin-2-one] | –
– | 7.19 | CCOc1cccc(F)c1C1CC(C)C(=O)N1Cc1ccc(OC(F)F)cc1 (stereo not drawn) [Example 373, 1-(4-(difluoromethoxy)benzyl)-5-(2-ethoxy-6-fluorophenyl)-3-methylpyrrolidin-2-one] | –
– | 7.60 | CCOc1cccc(CN2C(=O)C(C)CC2c2c(F)cccc2OCC)c1 (stereo not drawn) [Example 376, 5-(2-ethoxy-6-fluorophenyl)-1-(3-ethoxybenzyl)-3-methylpyrrolidin-2-one] | –
– | – | CCCOc1ccc(CN2C(=O)C(C)CC2c2c(F)cccc2OCC)cc1 (stereo not drawn) [Example 377, 5-(2-ethoxy-6-fluorophenyl)-3-methyl-1-(4-propoxybenzyl)pyrrolidin-2-one] | pIC50 [2]: 7.02
– | 6.54 | CCCOc1cccc(F)c1C1CC(C)C(=O)N1Cc1ccc(OC(F)(F)F)cc1 (stereo not drawn) [Example 415, 5-(2-fluoro-6-propoxyphenyl)-3-methyl-1-(4-(trifluoromethoxy)benzyl)pyrrolidin-2-one] | –

SMILES | pIC50 ([1]; compound incubation 120 min) | pIC50 [2, 5] | other results
CCOc1ccccc1[C@@H]1C[C@H](Cl)C(=O)N1Cc1ccc(OC(F)(F)F)cc1 (racemic) [Example 304, rac-(3S*,5S*)-3-chloro-5-(2-ethoxyphenyl-1-(4-(trifluoromethoxy)benzyl)pyrrolidin-2-one] | 6.21 | 6.89 | –
COc1cccc(OC)c1C1CCCC(=O)N1Cc1ccc2ccccc2n1 (stereo not drawn) [Example 4b, 6-(2,6-dimethoxyphenyl)-1-(quinolin-2-ylmethyl)piperidin-2-one] | 5.85 | – | –
COc1cccc(OC)c1C1CCCC(=O)N1Cc1cnc(OC(F)F)c(C2CC2)c1 (stereo not drawn) [Example 70, 1-((5-cyclopropyl-6-(difluoromethoxy)pyridin-3-yl)methyl)-6-(2,6-dimethoxyphenyl)piperidin-2-one] | 5.75 | – | –
